Test results reported in patent US20060040909A1, “Selenophene compounds” (DEVELOPMENT CENTER FOR BIOTECHNOLOGY, priority 2004, published 2006).

System: Hep-3B liver cancer cells
Assay: In vivo assay, Hep-3B cells transplanted subcutaneously into athymic mice
Conditions: intraperitoneally, once every two days, 14th day, vs control group
Procedure: Compound 3 was tested for its efficacy against Hep-3B liver cancer cells implanted in mice of two treated groups at a […] dosage of 50 mg/kg and 75 mg/kg. In a control group, mice bearing Hep-3B liver cancer cells were not treated with any test compound. Male athymic mice (Ncr nu/nu) of 4-6 weeks of age and weighing 20-25 g were used. Mice were housed in cages in ventilated cabinets and provided sterilized pellet diet and sterile water ad libitum. The temperature was kept between 23-25° C. and a humidity of about 50±10%. Light of the housing area was on a 12-hour light/dark cycle. All experimentation was performed under the IACUC guidelines adopted by the Development Center for Biotechnology, Taiwan. Hep-3B cells were transplanted subcutaneously into athymic mice. In the treated groups, when the tumor reached a volume of about 50 mm^3, mice were treated with compound 3 at a dosage of 50 mg/kg or 75 mg/kg once every two days for three times. The treated groups and the control group each had 7 mice. Compound 3 was administered intraperitoneally. The sizes of tumors were measured using a caliper at least twice a week and the tumor volume (TV) was calculated. Body weights were also monitored along with tumor volume measurement. The percentage of tumor growth was determined by dividing the mean TV of the treated group by the mean TV of a control group.

## Cn1c(-c2ccc(CO)[se]2)cc(CO)c1-c1ccc(CO)[se]1 [Compound 3]
Three doses of 50 mg/kg
  mean TV (tumor volume) reduced: 37%
Three doses of 75 mg/kg
  mean TV (tumor volume) reduced: 63%
